Data set [1] in a line: Plasma compound exposure in rats (tail bleed, day 6). It counts as in vivo. Particulars: rat. How it is done:
(§1) All animals (telemetry-instrumented) are single housed in metabolic cages. Rats are acclimated to the metabolic cage for at least 3 days and then dosed with vehicle for up to 4 days. Blood pressure, heart rate, and bodyweight are collected during the baseline period and animals are randomized into 3 groups based on these parameters (n=8-9/group). Treatment groups are: vehicle and test compound (10 mg/kg po and 30 mg/kg po qd); animals are treated with compound for 5 days. […] Mean arterial pressure (MAP) and heart rate (HR) are collected continuously throughout the study. Statistical analyses is performed using GraphPad Prism based on the average 24-hr mean value during five days of compound administration (one-way ANOVA with Dunnett's post-test vs. Vehicle; p<0.05 is considered statistically significant).

The subject of data set [2] is mean arterial pressure (MAP). The settings on record: rat, in vivo; for 5-Day 24-h MAP Change versus Control: po. The procedure: In-Vivo Assay—Comparison Between the Compounds of the Present Invention and Comparative Compounds A, B and C
In a side-by-side in-vivo study, select compounds of the present invention and comparative compounds A-C are evaluated in telemetry-instrumented conscious rats to determine their effects on mean arterial pressure (MAP) at doses at or above therapeutically relevant concentrations.
as §1

The target of data set [3] is human recombinant full length TEC (His-tagged) (Homo sapiens (Human), UniProt P42680). Put plainly: TEC Lanthscreen Eu Kinase Binding assay. The settings on record: 1 nM TEC.
human recombinant full length TEC (His-tagged), sequence (P42680 whole entry): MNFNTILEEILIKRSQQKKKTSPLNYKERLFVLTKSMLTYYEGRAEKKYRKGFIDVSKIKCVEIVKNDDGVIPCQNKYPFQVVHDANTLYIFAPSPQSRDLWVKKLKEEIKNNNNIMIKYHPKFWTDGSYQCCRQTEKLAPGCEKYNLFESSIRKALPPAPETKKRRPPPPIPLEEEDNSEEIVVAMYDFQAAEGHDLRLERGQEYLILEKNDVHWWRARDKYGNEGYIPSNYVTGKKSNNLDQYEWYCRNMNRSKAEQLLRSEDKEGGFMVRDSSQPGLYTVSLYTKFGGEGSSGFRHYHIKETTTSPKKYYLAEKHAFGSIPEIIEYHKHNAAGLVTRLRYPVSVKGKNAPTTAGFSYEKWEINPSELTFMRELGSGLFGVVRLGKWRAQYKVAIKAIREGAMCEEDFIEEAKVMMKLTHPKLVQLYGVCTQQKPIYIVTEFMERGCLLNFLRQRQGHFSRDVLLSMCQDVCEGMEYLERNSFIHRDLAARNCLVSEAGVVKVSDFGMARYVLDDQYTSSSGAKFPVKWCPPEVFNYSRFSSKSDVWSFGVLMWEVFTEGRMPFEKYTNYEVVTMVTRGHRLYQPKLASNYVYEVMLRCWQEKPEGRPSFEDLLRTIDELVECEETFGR
For data set [4], the target named is human recombinant BTK (full length, His-tagged) (Homo sapiens (Human), UniProt Q06187). Put plainly: BTK Z'-LYTE assay.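 Further: FRET readout of kinase phosphorylating a coumarin and fluorescein labelled synthetic peptide, detected via protease sensitivity of unphosphorylated versus phosphorylated substrate, incubated at 22 °C in 384-well plates.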 It counts as biochemical. The settings on record: 25 μM ATP.
human recombinant BTK (full length, His-tagged), sequence (Q06187 whole entry): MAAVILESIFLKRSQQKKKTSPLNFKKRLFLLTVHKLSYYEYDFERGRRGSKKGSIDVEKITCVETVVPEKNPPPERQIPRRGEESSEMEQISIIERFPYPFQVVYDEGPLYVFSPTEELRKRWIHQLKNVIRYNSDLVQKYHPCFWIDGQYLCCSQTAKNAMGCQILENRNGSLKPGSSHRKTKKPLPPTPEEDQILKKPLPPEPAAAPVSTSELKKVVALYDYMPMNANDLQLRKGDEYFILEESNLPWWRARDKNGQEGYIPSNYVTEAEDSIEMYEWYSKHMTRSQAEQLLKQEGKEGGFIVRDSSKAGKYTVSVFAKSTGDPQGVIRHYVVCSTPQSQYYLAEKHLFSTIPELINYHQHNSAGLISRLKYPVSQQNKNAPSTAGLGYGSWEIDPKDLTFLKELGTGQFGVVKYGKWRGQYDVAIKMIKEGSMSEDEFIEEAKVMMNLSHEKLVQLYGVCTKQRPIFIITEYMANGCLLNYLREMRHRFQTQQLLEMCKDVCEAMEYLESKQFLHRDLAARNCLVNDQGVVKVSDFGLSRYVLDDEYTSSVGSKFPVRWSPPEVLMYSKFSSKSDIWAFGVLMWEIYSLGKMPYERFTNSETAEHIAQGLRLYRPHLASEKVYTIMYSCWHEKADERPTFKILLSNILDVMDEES
Protocol: Z′-LYTE™ Assay (Life Technologies):
(§3) The Z′-Lyte assay employs a FRET-based, coupled-enzyme format and is based on the differential sensitivity of phosphorylated and non-phosphorylated peptides to proteolytic Cleavage. The activity of human recombinant BTK (full length, His-tagged), BMX (full length, His-tagged) or Txk (full length, GST-tagged) is estimated by measuring the phosphorylation of a synthetic FRET peptide substrate labeled with Coumarin and Fluorescein. […] Incubations are carried out at 22° C. in black polypropylene 384-well plates (Corning).
(§4) Representative compounds of the present invention are assessed for inhibition of BTK, BMX, and TXK measuring phosphorylation of a substrate (Z′-LYTE™ assay, Life Technologies) and TEC measuring displacement of a “tracer” (Lanthscreen® Eu Kinase Binding assay, Life Technologies).
Data set [5] deals with human recombinant Txk (full length, GST-tagged) (Homo sapiens (Human), UniProt P42681). Put plainly: TXK Z'-LYTE assay.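 Further: FRET read-out of kinase phosphorylation of a synthetic peptide labelled with Coumarin and Fluorescein, scored by protease sensitivity of unphosphorylated peptide, incubated at 22 °C.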 Particulars: read-out: TXK IC50, 100 μM ATP.
human recombinant Txk (full length, GST-tagged), sequence (P42681 whole entry): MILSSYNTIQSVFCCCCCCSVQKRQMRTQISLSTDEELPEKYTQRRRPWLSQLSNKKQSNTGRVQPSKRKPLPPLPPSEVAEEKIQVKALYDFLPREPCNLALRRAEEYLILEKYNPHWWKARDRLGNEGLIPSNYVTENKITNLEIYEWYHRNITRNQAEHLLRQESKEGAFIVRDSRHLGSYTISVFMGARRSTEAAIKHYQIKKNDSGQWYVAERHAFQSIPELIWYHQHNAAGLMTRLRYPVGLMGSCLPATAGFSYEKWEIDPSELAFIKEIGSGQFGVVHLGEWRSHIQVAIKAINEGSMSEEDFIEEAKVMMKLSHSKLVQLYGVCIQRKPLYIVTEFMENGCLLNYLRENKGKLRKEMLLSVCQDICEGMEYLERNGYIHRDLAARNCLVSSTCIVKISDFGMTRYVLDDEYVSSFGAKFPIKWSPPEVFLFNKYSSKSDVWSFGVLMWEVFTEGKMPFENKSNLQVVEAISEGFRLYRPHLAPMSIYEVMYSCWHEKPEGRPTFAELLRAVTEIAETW
Protocol: Z′-LYTE™ Assay (Life Technologies):
as §3, §4
Data set [6] addresses EGFR (EGFR phosphorylation in A431 cells) (Homo sapiens (Human), UniProt P00533). Put plainly: Inhibition of EGFR autophosphorylation in A431 human epithelial cells stimulated with EGF. Format: cell-based. Particulars: EGF 60 ng/mL, read-out: A431 p-EGFR IC50. The procedure: Inhibition of EGFR Autophosphorylation in A431 Human Epithelial Cells Stimulated with Epithelial Growth Factor
A431 cells (ATCC #CRL-1555 FZ) are thawed and plated in DMEM containing 10% FBS in a 384-well tissue culture treated plate at 15,000 cells/well. After incubating for 24 hours at 37° C., 5% CO2, the cells are treated with test compound (1% DMSO final concentration) and incubated for 16 hours at 37° C., 5% CO2. EGF (Millipore, 01-107) is added at a final concentration of 60 ng/mL and incubated for 10 minutes. The medium is removed, the cells are lysed, and phospho EGFR is measured (Meso Scale Diagnostics, N31CB-1).
(§2) Representative compounds of the present invention are tested and show BTK inhibition (Table I). […] Additionally, compounds of the present invention, as represented by examples in Table II, are selective for BTK inhibition over other related kinases. […] In this table the BTK activity is measured by IL-6 production in primary CD19^+ B cells, and the EGFR activity is measured by EGFR phosphorylation in A431 cells.

Data set [7] has as its target human full length His-tagged BTK (Homo sapiens (Human), UniProt Q06187). Put plainly: BTK Lanthscreen Eu Kinase Binding assay. The settings on record: 2 nM BTK. How it is done: BTK Lanthscreen® Eu Kinase Binding Assay:
A Lanthscreen® Eu Kinase Binding assay (Life Technologies) is performed to quantitate the ability of test compounds to bind to BTK. The assay is based on the binding and displacement of Alexa Fluor647-labeled Kinase Tracer #236 to the ATP-binding site of human full length His-tagged BTK (Life Technologies cat #PV3587) with TR-FRET detection using a europium-labeled anti-His antibody. The assay is assembled in 384-well low volume NBS black plates (Corning) where 2 nM BTK and test compound in DMSO at varying concentrations are pre-incubated for 30 min at 28° C. in assay buffer consisting of 50 mM HEPES, pH 7.4, 10 mM MgCl2, 1 mM EGTA. 100 μM Na3VO4 and 0.01% Brij 35. Then, 2 nM of Eu-anti His antibody and 30 nM Kinase Tracer are added and incubated for 60 min at 28° C. Following incubation, TR-FRET signal is read on an Envision plate reader (Excitation: 340 nm; Emissions: 615 and 665 nm). The 665:615 nm emission ratio is calculated and converted to POC compared to control and blank wells.

The test system of data set [8] is BTK (IL-6 production in primary CD19+ B cells). Put plainly: Inhibition of IL-6 production in B cells co-stimulated with ODN 2006 and anti-hIgD. Format: cell-based. Particulars: B-cell, anti-human IgD + ODN 2006. How it is done: Inhibition of IL-6 Production in B Cells Co-Stimulated with ODN 2006 and anti-hIgD
Primary CD19+ B cells (AllCells #PB010F) are thawed and plated in RPMI containing 10% HI FBS in a 384-well tissue cultured plate at 20,000 cells/well. The cells are treated with test compound (0.5% DMSO final concentration) and incubated for 1 hour at 37° C., 5% CO2. Cells are then stimulated with 5 ug/mL Goat F(ab′)2 anti-human IgD (SouthernBiotech #2032) and 2 uM ODN 2006 (InvivoGen #tlrl-2006) and incubated for 18-24 hours at 37° C., 5% CO2. IL-6 in the supernatant is measured using Meso Scale Discovery kit #K211AKB-6.
as §2

Where two headings read alike, the source gives them in different places.

The Cmax is the peak of the concentration-time curve. The IC50 is the point on the concentration scale where inhibition reaches its midpoint.

EGFR (EGFR phosphorylation in A431 cells), sequence (P00533 25-1210): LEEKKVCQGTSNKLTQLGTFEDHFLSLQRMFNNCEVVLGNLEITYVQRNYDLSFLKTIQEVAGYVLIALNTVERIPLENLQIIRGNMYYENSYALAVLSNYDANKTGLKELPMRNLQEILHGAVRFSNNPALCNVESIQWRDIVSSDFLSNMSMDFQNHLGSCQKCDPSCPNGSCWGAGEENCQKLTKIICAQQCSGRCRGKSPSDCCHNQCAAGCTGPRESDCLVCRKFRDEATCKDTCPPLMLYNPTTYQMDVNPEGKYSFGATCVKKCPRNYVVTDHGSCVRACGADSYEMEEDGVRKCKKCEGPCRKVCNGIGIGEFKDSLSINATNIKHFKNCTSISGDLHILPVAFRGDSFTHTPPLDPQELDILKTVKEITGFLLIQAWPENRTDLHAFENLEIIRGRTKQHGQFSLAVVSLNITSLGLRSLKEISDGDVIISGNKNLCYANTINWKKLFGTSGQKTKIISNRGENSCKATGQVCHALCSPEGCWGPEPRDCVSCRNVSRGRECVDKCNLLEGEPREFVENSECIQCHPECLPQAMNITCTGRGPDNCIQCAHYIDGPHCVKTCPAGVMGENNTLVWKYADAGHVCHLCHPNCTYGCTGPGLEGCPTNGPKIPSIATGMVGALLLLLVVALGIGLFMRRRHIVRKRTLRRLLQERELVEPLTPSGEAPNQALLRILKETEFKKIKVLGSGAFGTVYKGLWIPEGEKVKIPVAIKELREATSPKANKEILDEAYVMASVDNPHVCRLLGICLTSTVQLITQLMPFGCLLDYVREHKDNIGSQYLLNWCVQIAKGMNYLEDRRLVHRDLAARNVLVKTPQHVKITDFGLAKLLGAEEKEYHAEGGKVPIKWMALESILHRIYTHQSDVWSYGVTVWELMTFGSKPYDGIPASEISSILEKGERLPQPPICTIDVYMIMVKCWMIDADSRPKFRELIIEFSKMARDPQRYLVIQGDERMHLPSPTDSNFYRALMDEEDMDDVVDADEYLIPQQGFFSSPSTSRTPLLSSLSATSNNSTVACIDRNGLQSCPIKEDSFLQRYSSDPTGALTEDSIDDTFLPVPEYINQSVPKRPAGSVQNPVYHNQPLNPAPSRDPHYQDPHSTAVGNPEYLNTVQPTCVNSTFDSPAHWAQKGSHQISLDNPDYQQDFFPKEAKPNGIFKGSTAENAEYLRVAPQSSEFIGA
human full length His-tagged BTK, sequence (Q06187 whole entry): as the sequence (Q06187 whole entry) above

Consider `C=CC(=O)N1CCC[C@@H](n2nc(-c3ccc(Oc4ccccc4)cc3)c3c(N)ncnc32)C1` [Compound A, 1-[(3R)-3-[4-amino-3-(4-phenoxyphenyl)pyrazolo[3,4-d]pyrimidin-1-yl]-1-piperidyl]prop-2-en-1-one], for which the Cmax came out at 319 ± 36 nM in data set [1] (plasma, 10 mg/kg po qd) and 561 ± 183 nM in data set [1] (plasma, 30 mg/kg po qd). Also, the “effect on mean arterial pressure (MAP)” value in data set [2] is listed as “statistically significant increases in MAP”. Also, the “5-Day 24-h MAP Change versus Control” value came to 3 ± 1 mmHg in data set [2] (10 mg/kg, 5 days) and 4 ± 1 mmHg in data set [2] (30 mg/kg, 5 days).

Consider `CC#CC(=O)N1CCC2(CC(n3nc(-c4ccc(OC(C)C)cc4)c(C(N)=O)c3N)C2)C1` (stereo not drawn) [Compound B, 5-amino-1-(7-but-2-ynoyl-7-azaspiro[3.4]octan-2-yl)-3-(4-isopropoxyphenyl) pyrazole-4-carboxamide], for which the Cmax in data set [1] (10 mg/kg po qd) was 182 ± 17 nM; in data set [1] (30 mg/kg po qd), 480 ± 53 nM. For the same compound, the figures for the IC50 in data set [3] and in data set [4] were 44 nM and 0.9 nM, respectively. Further, the “effect on mean arterial pressure (MAP)” value in data set [2] is on record as “statistically significant increases in MAP”. The “5-Day 24-h MAP Change versus Control” value in data set [2] (10 mg/kg) came out at 3 ± 1 mmHg; in data set [2] (30 mg/kg) it was 2 ± 1 mmHg.

With `C=CC(=O)Nc1cccc(Nc2nc(Nc3ccc(OCCOC)cc3)ncc2F)c1` [Compound C, N-(3-(5-fluoro-2-(4-(2-methoxyethoxy)phenylamino)pyrimidin-4-ylamino)phenyl)acrylamide], the Cmax in data set [1] (plasma, 10 mg/kg po qd) was 644 ± 96 nM; in data set [1] (plasma, 30 mg/kg po qd) it was 1730 ± 434 nM. Further, the IC50 in data set [3] is 6.8 nM; in data set [5], 22 nM. The “effect on mean arterial pressure (MAP)” value in data set [2] was “statistically significant increases in MAP”. Moreover, the “5-Day 24-h MAP Change versus Control” value amounted to 4 ± 1 mmHg in data set [2] (10 mg/kg, 5 days) and 5 ± 1 mmHg in data set [2] (30 mg/kg, 5 days).

Take `CC#CC(=O)N1CC[C@]2(C1)C[C@H](n1nc(-c3cnn(Cc4ccccc4C(F)(F)F)c3)c(C(N)=O)c1N)C2` [Example 12]: the IC50 was more than 10000 nM in data set [6]; 0.5 nM in data set [7]; 92 nM in data set [3]; 0.5 nM in data set [8]; 1.7 nM in data set [4]; 130 nM in data set [5]. Besides, the Cmax is 111 ± 37 nM in data set [1] (plasma, 10 mg/kg po qd) and 344 ± 106 nM in data set [1] (plasma, 30 mg/kg po qd). Further, the “5-Day 24-h MAP Change versus Control” value in data set [2] (10 mg/kg) and in data set [2] (30 mg/kg) was “No statistically significant” throughout.

For the compound `CC#CC(=O)N1CC[C@]2(C1)C[C@H](n1nc(-c3cnn(Cc4cccc(C(F)(F)F)c4)c3)c(C(N)=O)c1N)C2` [Example 22], the IC50 is more than 10000 nM in data set [6]; 0.3 nM in data set [7]; 21 nM in data set [3]; 0.8 nM in data set [8]; 0.7 nM in data set [4]; 46 nM in data set [5]. Further, the Cmax in data set [1] (plasma, 10 mg/kg po qd) was determined as 170 ± 29 nM; in data set [1] (plasma, 30 mg/kg po qd) it was 720 ± 262 nM. In addition, the “5-Day 24-h MAP Change versus Control” value in data set [2] (10 mg/kg) and in data set [2] (30 mg/kg) was “No statistically significant” throughout.
